Measurements: PMC11678777, “Haloperidol-Induced Catalepsy and Its Correlations with Acetylcholinesterase Activity in Different Brain Structures of Mice” (Neurology International, 2024)

Molecular target: T1, commercial enzyme AChE from Electrophorus electricus (Electrophorus electricus, UniProt O42275)
T1 construct: commercial enzyme (Sigma), native
Assay: Ellman assay, […] nm, 96-well plate
Type: biochemical
Settings: AChE 1 U/mL; phosphate buffer 0.1 mol/L pH 8.0; 10 µL of 20 mmol/L acetylthiocholine iodide in 200 µL; 10 min preincubation, room temperature; Haldol formulation

T1 sequence (O42275 24-633): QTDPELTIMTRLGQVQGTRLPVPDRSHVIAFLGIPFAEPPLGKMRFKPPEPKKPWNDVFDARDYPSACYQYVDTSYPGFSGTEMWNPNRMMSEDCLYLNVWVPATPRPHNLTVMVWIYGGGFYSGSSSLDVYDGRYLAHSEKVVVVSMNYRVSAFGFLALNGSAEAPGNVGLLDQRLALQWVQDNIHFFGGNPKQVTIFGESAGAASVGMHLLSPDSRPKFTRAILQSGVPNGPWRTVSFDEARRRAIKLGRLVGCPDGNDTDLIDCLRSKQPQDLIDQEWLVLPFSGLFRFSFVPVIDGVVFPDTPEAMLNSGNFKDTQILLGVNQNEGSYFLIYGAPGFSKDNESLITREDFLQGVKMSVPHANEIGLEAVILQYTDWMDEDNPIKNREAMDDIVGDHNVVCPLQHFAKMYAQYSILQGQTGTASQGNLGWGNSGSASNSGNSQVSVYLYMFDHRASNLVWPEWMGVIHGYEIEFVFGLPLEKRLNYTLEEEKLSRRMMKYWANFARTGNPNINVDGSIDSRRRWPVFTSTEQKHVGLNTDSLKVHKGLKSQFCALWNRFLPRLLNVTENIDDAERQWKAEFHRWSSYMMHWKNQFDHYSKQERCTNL

O=C(CCCN1CCC(O)(c2ccc(Cl)cc2)CC1)c1ccc(F)cc1 [Haloperidol]
dose-dependent inhibition: Hal inhibited commercial AChE activity in a dose-dependent manner
